Data reported in patent publication US7754463B2, “Inhibitors of USP1 Deubiquitinating Enzyme Complex” (Dana-Farber Cancer Institute, priority 2006, dated 2010).
Starred links: 1 amine or outer side, 2 acyl side, 3 side chain; linkers in the order of their positions; H or OH if unused. Positions of bridges follow the written chain, without caps; N, C: chain ends. Non-standard residues stand in square brackets, D forms with d. Residues, ends and D or L forms follow the SMILES beside them. Chains are numbered I, II in the order given. Actinocin(9to1) = Cc1c2oc3c(C)ccc(C(=O)[*:1])c3nc-2c(C(=O)[*:2])c(N)c1=O; NMeV = CN[C@H](C(=O)O)C(C)C; Sar = CNCC(=O)O

Assays:
USP1 mRNA = USP1 mRNA level after transcription inhibition (Northern blot); format: cell-based, human; settings: Actinomycin D, UV or both; data not shown
Experimental: Northern blot analysis was performed as described using the 394 nt PstI-EcoRV fragment of the USP1 cDNA (Cohn, M. A., Kramerov, D., Hulgaard, E. F., and Lukanidin, E. M. (1997). The differentiation antigen Ly-6E.1 is expressed in mouse metastatic tumor cell lines. FEBS Lett 403, 181-185).
UAF1 protein levels were not affected by UV irradiation (FIG. 6A and FIG. 6B). It was speculated that one regulatory event that may reduce USP1 activity after DNA damage may be transcriptional down-regulation of the USP1 gene. To test this hypothesis, USP1 mRNA levels were measured in 293T cells after UV irradiation. A rapid decrease of the USP1 mRNA (FIG. 6C) was observed, with kinetics reflecting the decrease of USP1 protein (FIG. 6B). […] To test whether active mRNA degradation also play a role in addition to transcriptional regulation, transcription was inhibited by Actinomycin D, an effective inhibitor of RNA polymerase II, cells were irradiated with UV, or both treatments were combined. […] Importantly, the level of full length USP1 decreased with kinetics similar to those in cells treated with UV irradiation (FIG. 6B).

USP1 [1] = assay: USP1 protein level after blocking transcription in 293T cells; format: cell-based, human; settings: 5 μg/ml
Experimental: (§1) A) HeLa cells expressing exogenous Flag-HA-USP1 were irradiated with 50 J/m^2 and samples were taken at the indicated times. Flag-HA-USP1 was immunoprecipitated using anti-Flag antibodies and the immunoprecipitates were analyzed by immunoblotting using the indicated antibodies with the exception of Flag-HA-USP1, which was detected using the mouse monoclonal 12CA5 antibody. B) HeLa cells were UV irradiated with 50 J/m^2 (UVC) and samples were taken at the indicated times. Protein samples were analyzed by immunoblotting using the indicated antibodies. C) 293T cells were UV irradiated with 100 J/m^2 (UVC) and samples were taken at the indicated times. Total RNA was prepared an analyzed by Northern blot analysis using the indicated probes. D) Quantification of the USP1 and total RNA intensities from C. E) 293T cells were treated with 5 μg/ml Actinomycin D and samples were taken at the indicated times. Protein samples were analyzed by immunoblotting using the indicated antibodies.
(§2) UAF1 protein levels were not affected by UV irradiation (FIG. 6A and FIG. 6B). It was speculated that one regulatory event that may reduce USP1 activity after DNA damage may be transcriptional down-regulation of the USP1 gene. To test this hypothesis, USP1 mRNA levels were measured in 293T cells after UV irradiation. […]

UAF1 = UAF1 protein level after blocking transcription in 293T cells; format: cell-based, human; settings: 5 μg/ml
Experimental: as §1, §2

Ubiquitin-AMC = assay: In vitro enzymatic activity and kinetics of purified USP1, UAF1 and USP1/UAF1 with Ubiquitin-AMC; format: biochemical, human
Experimental: A) Coomassie blue stain of purified USP1 and UAF1 proteins, expressed either alone of simultaneously as a protein complex in Sf9 cells. B) The in vitro enzymatic activity of USP1, UAF1 or the USP1/UAF1 complex was assayed using Ub-AMC as a substrate. The concentration of each protein was 10 nM. C) Calculation of slopes of the curves in B. The activity of USP1 was arbitrarily set to a value of 1. Relative values for UAF1 and USP1/UAF1 were −0.25 and 36.25, respectively. The slightly negative value for UAF1 is a result of photo bleaching during the experiment. D) UAF1 activates USP1 instantly upon binding in vitro. The enzymatic activity of the USP1 enzyme was monitored as UAF1 was added to the reaction. The concentrations of both USP1 and UAF1 were 2 nM. E) Km and kcat values of the USP1 enzyme and the USP1/UAF1 complex were determined by measuring the substrate conversion at constant enzyme concentration (20 nM for USP1 and 2 nM for the USP1/UAF1 complex) and various substrate concentrations (final concentrations of Ub-AMC of 0.6 μM, 0.75 μM, 1 μM, 1.5 μM and 3 μM for USP1; and 0.42 μM, 0.525 μM, 0.7 μM, 1.05 μM, 2.1 μM […] for the USP1/UAF1 complex). Km and kcat values were calculated by plotting the obtained conversion values in a double-reciprocal Lineweaver-Burk plot. Standard deviation of Km and kcat were calculated from 5-6 independent repeats of the above measurements and are shown in brackets in the table.
Transcription/translation in rabbit reticulocyte was performed according to manufactures recommendations with the exception that the reactions were performed at 30° C. (Promega). In vitro enzymatic assays in the presence of 5 μM Ubiquitin-VS (Ubiquitin-Vinyl Sulfone; U-202; Boston Biochem) were performed 30° C. In vitro enzymatic assays using Ubiquitin-AMC (Ubiquitin-7-amido-4-methylcoumarin; U-550; Boston Biochem) were performed in 50-100 μl reaction buffer (20 mM HEPES-KOH pH 7.8, 20 mM NaCl, 0.1 mg/ml Ovalbumin (A7641; Sigma), 0.5 mM EDTA and 10 mM DTT) at 37° C. Fluorescence was monitored in a FluoStar Galaxy Fluorometer (BMG Labtech Inc.). In vitro deubiquitination reactions of Ub-FANCD2 were performed in 10 μl reaction buffer (90 mM Tris-HCl pH 8.0, 50 mM NaCl, 0.03% NP-40, 4 mg/ml BSA and 2 mM DTT) for 2 h at 30° C.
The enzymatic activity of the purified proteins was assayed using fluorogenic Ubiquitin-AMC as a substrate. […] The activity of the USP1/UAF1 heterodimer was about 30-fold higher than the activity of USP1 alone (FIG. 3C).
In order to better understand the enzymatic consequences of the complex-formation between UAF1 and USP1, the kinetic parameters of the USP1 enzyme alone and the UAF1/USP1 complex were determined. […] This mechanism of activation contrasts with that of another deubiquitinating enzyme, Uch37, which is involved in proteasome-mediated protein degradation. Uch37 is activated by the Adrm1 protein. […] Nat Cell Biol 8, 994-1002).

USP1 [2] = molecular target: T1, USP1 (Homo sapiens, UniProt O94782, G670A/G671A); assay: Activation of USP1 enzymatic activity in vitro by UAF1 wild type or mutant protein; format: biochemical; settings: all proteins 10 nM, Ub-AMC
T1 construct: His tag (N); made in house; host or cells: Sf9 insect cells
T1 sequence (O94782 1-785 G670A/G671A): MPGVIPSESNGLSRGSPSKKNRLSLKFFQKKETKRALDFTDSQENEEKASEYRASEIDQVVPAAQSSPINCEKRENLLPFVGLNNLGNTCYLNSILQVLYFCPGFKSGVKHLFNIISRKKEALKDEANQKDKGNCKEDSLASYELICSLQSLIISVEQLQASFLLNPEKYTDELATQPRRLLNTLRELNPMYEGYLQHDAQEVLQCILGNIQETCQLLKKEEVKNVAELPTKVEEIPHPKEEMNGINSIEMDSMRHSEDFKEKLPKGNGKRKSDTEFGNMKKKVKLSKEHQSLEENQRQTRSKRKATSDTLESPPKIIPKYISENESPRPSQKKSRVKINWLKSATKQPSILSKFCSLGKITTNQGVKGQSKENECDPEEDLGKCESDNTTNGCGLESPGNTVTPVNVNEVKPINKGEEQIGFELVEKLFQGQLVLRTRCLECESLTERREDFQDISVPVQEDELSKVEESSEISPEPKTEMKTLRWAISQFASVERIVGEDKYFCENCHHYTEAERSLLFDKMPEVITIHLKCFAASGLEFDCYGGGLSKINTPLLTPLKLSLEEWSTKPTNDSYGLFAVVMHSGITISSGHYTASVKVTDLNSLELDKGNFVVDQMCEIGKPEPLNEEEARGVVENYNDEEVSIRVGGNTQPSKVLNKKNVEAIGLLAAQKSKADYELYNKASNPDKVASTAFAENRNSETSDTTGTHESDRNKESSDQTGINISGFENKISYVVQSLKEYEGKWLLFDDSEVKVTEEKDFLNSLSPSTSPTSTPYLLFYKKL
Experimental: A) Scheme of wild type UAF1 and deletion mutants thereof. B) Flag-tagged deletion mutants of UAF1 were transiently expressed in 293T cells. The Flag-tagged proteins were immunoprecipitated from cell lysates using anti-Flag antibodies. The immunoprecipitates were analyzed using the indicated antibodies. C) A mutant protein of UAF1 where the second WD40 repeat has been deleted (UAF1-ΔWD2) fails to activate USP1 enzymatic activity in vitro. Strep-tagged UAF1-ΔWD2 was expressed and purified from Sf9 insect cells. The enzymatic activity of the USP1 enzyme was monitored as UAF1 wild type or mutant proteins was added to the reaction. The concentrations of all proteins were 10 nM.
The above experiments were performed using a preformed USP1/UAF1 complex. To gain further insight into the dynamics of USP1/UAF1 complex formation and USP1 activation, the kinetics of UAF1 binding and activation of USP1 were investigated. An in vitro enzymatic reaction of USP1 was set up using Ubiquitin-AMC as a substrate. Ten minutes into the reaction, during the stable and low substrate-turnover, either buffer or purified UAF1 protein was added in an equimolar amount to USP1. […] Given the affinity between the two proteins, it was predicted that as USP1 is synthesized in the cell, it rapidly forms a complex with UAF1. If UAF1 is not available, the protein is destabilized and degraded. […]

In the case of `Cc1c2oc3c(C)ccc(C(=O)N[C@@H]4C(=O)N[C@H](C(C)C)C(=O)N5CCC[C@H]5C(=O)N(C)CC(=O)N(C)[C@@H](C(C)C)C(=O)O[C@@H]4C)c3nc-2c(C(=O)N[C@@H]2C(=O)N[C@H](C(C)C)C(=O)N3CCC[C@H]3C(=O)N(C)CC(=O)N(C)[C@@H](C(C)C)C(=O)O[C@@H]2C)c(N)c1=O` [Actinomycin D] (I: T[dV]P[Sar][NMeV] / II: T[dV]P[Sar][NMeV]; ester I:1-I:C, II:1-II:C; linker I:N-II:N via Actinocin(9to1)), the “USP1 mRNA level” value (USP1 mRNA) is reported as “decreased with similar kinetics in all three cases”, the “USP1 protein levels over time” value (USP1 [1]) is reported as “decrease of USP1 protein levels over time” and the “level of UAF1 protein” value (UAF1) is reported as “remained unchanged”.

“UAF1: purified USP1 Associated Factor 1, WD40 repeat protein (SEQ ID NO:4)” was tested, and the “relative activity (slope of Ub-AMC curve), USP1 set to 1” value (Ubiquitin-AMC; 10 nM each protein) was −0.25, the “deubiquitinating activity on Ubiquitin-AMC” value (Ubiquitin-AMC; purified protein alone) was “no detectable deubiquitinating activity” and the “stimulation of USP1 enzymatic activity” value (USP1 [2]) was “able to stimulate the enzymatic activity of USP1”.
